Test results from patent US20140099262A1, “ISOTOPICALLY LABELED CDP-CHOLINE AND USES THEREOF” (BRAIN WATCH LTD., priority 2011, published 2014).
Marks after values point to notes of the source that are not given here.

Assays:
[1] = intravenous administration; cited from earlier work
[2] = T1 of carbon-13 nuclei in the choline moiety of CDP-choline; format: physicochemical; conditions: 11.8 T, non-deuterated positions
Description: Furthermore, it was unexpected to find that the relaxation time of the phosphorus nuclei is longer in plasma as compared to water.

[3] = 31P T1 (spin-lattice relaxation) measurement of CDP-Choline phosphates by inversion recovery, in water and in plasma; format: physicochemical; conditions: 31P-NMR, 11.8T, confidence interval in brackets
Description: […] CDP-Choline were dissolved in 700 μL distilled water containing 10% deuterated water (85.7 mM solution) and stored in a 5 mm NMR tube in the freezer until assay.
Two units of expired plasma (about 250 cc per unit) from blood type AB and O were obtained frozen from the blood bank section at Hadassah Medical Center. Plasma was defrosted in the refrigerator overnight. 565 μl of plasma solution was mixed with 75 IA distilled water and transferred to a 5 mm NMR tube. The solution was kept on ice until NMR analysis the same day. 60 μl CDP-Choline was added to the solution and ^31P-NMR was recorded 37 s from the time CDP-Choline mixed with the plasma solutions in the NMR tube. The Ionic strength of the solution was 315.04 mM and the concentration of CDP-Choline 15.4 mM.
Spectra were obtained on an 11.8T high-resolution spectrometer (Varian, Palo Alto, Calif., USA) with a 5 mm direct multi-nuclei probe.
T1 measurements were performed for CDP-Choline in water and in plasma with the standard inversion recovery pulse sequence. The data were fitted to the standard inversion recovery equation using the MATLAB software (The MathWorks Inc., Natick, Mass., USA).

Structure (SMILES): C[N+](C)(C)CCOP(=O)(O)OP(=O)(O)OC[C@H]1O[C@@H](n2ccc(N)nc2=O)[C@H](O)[C@@H]1O [CDP-Choline, 5′-O-[hydroxy({hydroxy[2-(trimethylammonio)ethoxy]phosphoryl}oxy)phosphoryl]cytidine]
- LD0 of CDP-Choline compared to choline [1]: about 40 fold
- T1 of the carbon-13 nuclei in the choline moiety [2]: 2 to 3 s
- T1 of phosphate P1 ([3]; H2O, 85.7 mM): 1.2 (0.9-1.5) s
- T1 of phosphate P2 ([3]; H2O, 85.7 mM): 1.4 (1.3-1.6) s
- T1 of phosphate P1 ([3]; plasma, 15.4 mM): 2.0 (1.9-2.0)* s
- T1 of phosphate P2 ([3]; plasma, 15.4 mM): 2.6 (2.4-2.8) s
